Type in all cases: cell-based
Experiment [1] concerns the target T1, Bcr/Abl fusion protein (Homo sapiens) (UniProt P00519+P11274). Description: Inhibition of BCR-ABL phosphorylation at Tyr245 residue in human K562 cells at 0.3 to 100 nM incubated for 16 hrs by Western blotting analysis. Conditions: dose 0.3-100 nM. (In general: Immunoblotting shows a protein as a band on a membrane.)
In experiment [2] the target is T2, Signal transducer and activator of transcription 5A (Homo sapiens) (UniProt P42229).
T2 sequence (whole entry): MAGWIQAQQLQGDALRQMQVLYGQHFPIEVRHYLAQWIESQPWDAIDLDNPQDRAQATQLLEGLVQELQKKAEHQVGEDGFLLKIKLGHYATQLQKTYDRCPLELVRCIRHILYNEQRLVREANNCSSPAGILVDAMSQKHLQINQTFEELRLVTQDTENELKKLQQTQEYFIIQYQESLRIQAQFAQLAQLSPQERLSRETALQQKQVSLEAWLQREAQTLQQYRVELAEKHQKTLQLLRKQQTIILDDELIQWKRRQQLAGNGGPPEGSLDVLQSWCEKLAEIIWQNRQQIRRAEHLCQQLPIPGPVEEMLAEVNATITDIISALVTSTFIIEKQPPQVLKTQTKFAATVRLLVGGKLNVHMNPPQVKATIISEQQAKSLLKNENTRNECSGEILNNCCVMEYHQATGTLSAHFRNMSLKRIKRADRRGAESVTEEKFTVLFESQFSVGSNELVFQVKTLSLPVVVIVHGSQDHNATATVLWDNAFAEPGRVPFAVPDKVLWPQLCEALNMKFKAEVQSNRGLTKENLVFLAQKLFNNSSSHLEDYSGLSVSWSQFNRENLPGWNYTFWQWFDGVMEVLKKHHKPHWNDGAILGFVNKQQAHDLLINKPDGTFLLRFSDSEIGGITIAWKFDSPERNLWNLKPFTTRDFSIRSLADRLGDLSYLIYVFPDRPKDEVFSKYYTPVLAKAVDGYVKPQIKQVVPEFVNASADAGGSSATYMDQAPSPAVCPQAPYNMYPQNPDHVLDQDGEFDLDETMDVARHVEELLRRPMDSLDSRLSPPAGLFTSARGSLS
Description: Inhibition of STAT5 phosphorylation at Tyr694 residue in human K562 cells at 0.3 to 100 nM incubated for 16 hrs by Western blotting analysis. Conditions: dose 0.3-100 nM.

Experiment [3] deals with Crk-like protein (Homo sapiens) (UniProt P46109). Description: Inhibition of CRKL phosphorylation at Tyr207 residue in human K562 cells at 0.3 to 100 nM incubated for 16 hrs by Western blotting analysis. Particulars: dose 0.3-100 nM.
Chain of Crk-like protein (Homo sapiens) (P46109 whole entry): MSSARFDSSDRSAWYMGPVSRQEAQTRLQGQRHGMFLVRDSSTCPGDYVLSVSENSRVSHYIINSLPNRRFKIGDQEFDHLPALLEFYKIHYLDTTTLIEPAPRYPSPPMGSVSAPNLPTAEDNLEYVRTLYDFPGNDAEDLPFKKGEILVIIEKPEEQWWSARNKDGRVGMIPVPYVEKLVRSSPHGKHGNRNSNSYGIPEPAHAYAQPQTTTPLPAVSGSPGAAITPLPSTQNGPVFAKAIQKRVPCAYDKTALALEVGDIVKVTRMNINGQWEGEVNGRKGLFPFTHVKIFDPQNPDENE
Experiment [4] addresses Protein cereblon/Tyrosine-protein kinase ABL1/Breakpoint cluster region protein (Homo sapiens, UniProt P00519+P11274+Q96SW2). Description: Protac activity at CRBN/BCR-ABL in human K562 cells assessed as increase in BCR-ABL degradation at 100 nM incubated for 6 hrs followed by compound washout measured upto 96 hrs by Western blotting analysis.
Experiment [5] addresses T1, Bcr/Abl fusion protein (Homo sapiens). The experiment in a line: Inhibition of BCR-ABL phosphorylation at Tyr245 residue in human K562 cells at 100 nM incubated for 6 hrs followed by compound washout measured upto 96 hrs by Western blotting analysis.
In experiment [6] the target is T2, Signal transducer and activator of transcription 5A (Homo sapiens). The experiment in a line: Inhibition of STAT5 phosphorylation at Tyr694 residue in human K562 cells at 100 nM incubated for 6 hrs followed by compound washout measured upto 96 hrs by Western blotting analysis.
For experiment [7], the target named is Crk-like protein (Homo sapiens) (UniProt P46109). The experiment in a line: Inhibition of CRKL phosphorylation at Tyr207 residue in human K562 cells at 100 nM incubated for 6 hrs followed by compound washout measured upto 96 hrs by Western blotting analysis.

Each structure is given as a SMILES string. The source made the active and inactive calls. No cut-off for these calls is given here.

T1 sequence (P00519 whole entry, looked up, the tested form may be a part): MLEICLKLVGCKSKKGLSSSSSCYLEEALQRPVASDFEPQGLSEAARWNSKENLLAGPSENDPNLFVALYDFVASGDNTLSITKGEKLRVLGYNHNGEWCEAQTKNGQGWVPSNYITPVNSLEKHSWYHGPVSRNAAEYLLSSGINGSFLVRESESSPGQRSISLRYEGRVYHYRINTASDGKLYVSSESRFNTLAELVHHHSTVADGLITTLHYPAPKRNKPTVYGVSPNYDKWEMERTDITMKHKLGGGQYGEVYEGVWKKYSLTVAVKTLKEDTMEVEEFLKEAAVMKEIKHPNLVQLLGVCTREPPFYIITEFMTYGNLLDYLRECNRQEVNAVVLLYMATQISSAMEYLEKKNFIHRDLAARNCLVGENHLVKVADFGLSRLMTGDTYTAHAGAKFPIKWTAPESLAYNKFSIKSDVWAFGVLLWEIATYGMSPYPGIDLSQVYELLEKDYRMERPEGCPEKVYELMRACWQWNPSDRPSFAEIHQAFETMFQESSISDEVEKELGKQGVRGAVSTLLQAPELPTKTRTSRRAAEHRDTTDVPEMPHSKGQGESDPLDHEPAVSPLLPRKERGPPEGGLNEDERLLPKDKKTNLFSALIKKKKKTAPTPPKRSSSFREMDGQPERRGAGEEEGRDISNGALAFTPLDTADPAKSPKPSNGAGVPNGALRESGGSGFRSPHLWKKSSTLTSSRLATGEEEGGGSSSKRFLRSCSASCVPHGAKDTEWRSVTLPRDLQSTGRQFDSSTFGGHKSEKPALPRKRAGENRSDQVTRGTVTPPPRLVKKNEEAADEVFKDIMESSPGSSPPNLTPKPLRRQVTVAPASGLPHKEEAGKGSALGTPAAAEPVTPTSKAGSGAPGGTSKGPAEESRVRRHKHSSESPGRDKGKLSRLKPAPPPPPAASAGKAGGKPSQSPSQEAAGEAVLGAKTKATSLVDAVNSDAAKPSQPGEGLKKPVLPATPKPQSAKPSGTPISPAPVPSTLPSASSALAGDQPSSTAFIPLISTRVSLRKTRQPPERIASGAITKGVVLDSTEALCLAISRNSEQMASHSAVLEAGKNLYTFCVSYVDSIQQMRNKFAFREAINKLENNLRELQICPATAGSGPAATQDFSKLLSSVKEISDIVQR
T1 sequence (P11274 whole entry, looked up, the tested form may be a part): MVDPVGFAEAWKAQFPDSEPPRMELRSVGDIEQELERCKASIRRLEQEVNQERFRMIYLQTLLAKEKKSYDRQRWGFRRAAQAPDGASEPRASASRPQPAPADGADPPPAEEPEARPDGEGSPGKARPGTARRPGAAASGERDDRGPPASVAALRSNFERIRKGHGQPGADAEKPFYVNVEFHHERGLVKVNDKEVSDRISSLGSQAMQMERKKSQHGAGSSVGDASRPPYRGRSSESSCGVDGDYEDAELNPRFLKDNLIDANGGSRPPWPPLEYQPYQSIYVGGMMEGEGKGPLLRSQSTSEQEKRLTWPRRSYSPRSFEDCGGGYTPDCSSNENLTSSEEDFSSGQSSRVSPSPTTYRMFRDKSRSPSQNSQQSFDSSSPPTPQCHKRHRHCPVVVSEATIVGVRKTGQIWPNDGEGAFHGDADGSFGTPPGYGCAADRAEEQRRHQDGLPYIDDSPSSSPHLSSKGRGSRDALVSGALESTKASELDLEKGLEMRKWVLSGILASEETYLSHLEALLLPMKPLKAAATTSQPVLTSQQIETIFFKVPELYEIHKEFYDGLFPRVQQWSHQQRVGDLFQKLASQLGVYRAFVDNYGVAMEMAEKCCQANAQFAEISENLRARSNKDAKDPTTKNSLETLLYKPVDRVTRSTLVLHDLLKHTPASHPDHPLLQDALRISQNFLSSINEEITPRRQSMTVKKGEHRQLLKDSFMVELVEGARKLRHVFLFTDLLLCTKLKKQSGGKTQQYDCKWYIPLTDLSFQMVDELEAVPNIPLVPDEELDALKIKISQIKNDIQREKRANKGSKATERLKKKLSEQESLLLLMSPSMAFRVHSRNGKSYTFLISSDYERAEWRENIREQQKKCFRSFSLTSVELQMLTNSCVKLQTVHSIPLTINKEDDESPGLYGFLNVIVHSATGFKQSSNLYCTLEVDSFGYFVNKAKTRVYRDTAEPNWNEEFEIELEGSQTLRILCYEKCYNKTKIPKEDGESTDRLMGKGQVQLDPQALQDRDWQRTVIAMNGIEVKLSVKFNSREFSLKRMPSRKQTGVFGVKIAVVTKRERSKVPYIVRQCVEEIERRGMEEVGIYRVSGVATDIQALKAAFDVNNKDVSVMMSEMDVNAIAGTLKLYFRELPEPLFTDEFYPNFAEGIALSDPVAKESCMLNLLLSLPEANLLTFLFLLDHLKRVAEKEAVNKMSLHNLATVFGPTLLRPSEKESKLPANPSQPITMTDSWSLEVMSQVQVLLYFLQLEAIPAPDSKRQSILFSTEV
Chain of Protein cereblon/Tyrosine-protein kinase ABL1/Breakpoint cluster region protein (P00519 whole entry, looked up, the tested form may be a part): as the sequence (P00519 whole entry, looked up, the tested form may be a part) above
Chain of Protein cereblon/Tyrosine-protein kinase ABL1/Breakpoint cluster region protein (P11274 whole entry, looked up, the tested form may be a part): as the sequence (P11274 whole entry, looked up, the tested form may be a part) above
Chain of Protein cereblon/Tyrosine-protein kinase ABL1/Breakpoint cluster region protein (Q96SW2 whole entry, looked up, the tested form may be a part): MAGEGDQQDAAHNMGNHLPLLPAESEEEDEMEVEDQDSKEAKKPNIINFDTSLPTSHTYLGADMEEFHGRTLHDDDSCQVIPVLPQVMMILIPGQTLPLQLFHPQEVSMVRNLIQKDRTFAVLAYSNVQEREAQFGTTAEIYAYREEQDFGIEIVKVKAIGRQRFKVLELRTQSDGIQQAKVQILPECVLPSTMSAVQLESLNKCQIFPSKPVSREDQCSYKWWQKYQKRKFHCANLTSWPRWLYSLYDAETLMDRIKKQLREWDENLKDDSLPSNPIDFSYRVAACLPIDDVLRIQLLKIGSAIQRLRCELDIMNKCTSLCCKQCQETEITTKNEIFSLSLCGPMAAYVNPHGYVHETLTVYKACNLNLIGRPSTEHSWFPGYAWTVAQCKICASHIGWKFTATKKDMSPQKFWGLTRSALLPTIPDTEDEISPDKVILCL

In the case of `CN1C(=O)CCC(N2Cc3c(SCCCCCCN4CCN(C5CCN(c6ncc(C(=O)Nc7ccc(OC(F)(F)Cl)cc7)cc6-c6ccn[nH]6)CC5)CC4)cccc3C2=O)C1=O` (configuration not stated), the outcome in experiment [1], in experiment [2] and in experiment [3] was Active. Moreover, the outcome in experiment [4] was inactive. Besides, the inhibition result in experiment [5], in experiment [6] and in experiment [7] was “inactive” each time.
